Data from patent publication US20220274947A1, “NOVEL HETEROARYL-TRIAZOLE COMPOUNDS AS PESTICIDES” (Bayer Aktiengesellschaft, priority 2019, published 2022).

What was measured:
Format in all cases: in vivo
[1] = system: Rhipicephalus microplus; test: Rhipicephalus (Boophilus) microplus injection test (BOOPMI Inj); conditions: 168 h, injection into adult engorged female ticks, egg deposition after 7 days, read-out: activity (efficacy: 100% means all eggs are infertile); for pest or weed control at 0.004 mg: application rate 4 μg/tick; for pest or weed control at 0.02 mg: application rate 20 μg/tick
How it was run: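 Compound in DMSO, 1 μL, injected abdominally into five adult engorged females, which were then held in a climate chamber. Read-out is egg fertility, scored from deposition at 7 days, with unclear eggs followed to hatching (~42 days); 0% means all eggs fertile, 100% all infertile.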

[2] = system: Rhipicephalus microplus; test: Rhipicephalus (Boophilus) microplus in-vitro contact test, larval cattle tick, strain Parkhurst (BOOPMI Cont); conditions: application rate 5 μg/cm^2 (=500 g/ha), tick larvae, after 48 hours, read-out: activity (efficacy: 100% means all larvae are dead or moribund)
How it was run: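 After 48 h at 27° C. and 85% humidity, percent dead or moribund larvae was scored from negative geotactic behaviour. Larvae (20-50, Parkhurst strain, synthetic pyrethroid-resistant) were exposed in tubes coated with compound from acetone, 900 ppm corresponding to 5 μg/cm^2.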

[3] = system: Ctenocephalides felis; test: Ctenocephalides felis oral test (CTECFE Oral); conditions: 48 h, read-out: activity (mortality)
How it was run: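 Percent mortality was recorded 2 days after roughly 20 adult Ctenocephalides felis fed on treated cattle blood. The blood was warmed to 37 °C beneath a parafilm membrane, with the fleas kept at room temperature. Compound was dissolved in DMSO and diluted into the blood to test concentration.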

[4] = system: Rhipicephalus sanguineus; test: Rhipicephalus sanguineus in-vitro contact test, adult brown dog ticks (RHIPSA Cont); conditions: 48 h, after 48 hours, read-out: activity (efficacy: 100% means all ticks are dead or moribund); for pest or weed control at 1 µg/cm2, 100 g/ha: application rate 1 μg/cm^2 (=100 g/ha); for pest or weed control at 5 µg/cm2, 500 g/ha: application rate 5 μg/cm^2 (=500 g/ha)
How it was run: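 Mortality of adult R. sanguineus was judged 48 h after contact with acetone-applied residues on glass tube walls. Ticks that stayed immotile or moved without coordination when heated to 45–50 °C (max 5 min) counted as dead or moribund.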

[5] = system: Myzus persicae; test: Myzus persicae oral test; conditions: 120 h, read-out: activity (mortality)
How it was run: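 Percent mortality was recorded at day 5, where 0% means no aphids killed. Compound prepared from an acetone concentrate diluted in water and combined with IPL41 medium containing sugar was offered to mixed-stage green peach aphids, which sucked it through a parafilm seal.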

[6] = system: Nezara viridula; test: Nezara viridula spray test; conditions: in Hordeum vulgare, 96 h, barley plants, larvae, after 4 days
How it was run: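 Mortality was read at day 4 (0% = no kill, 100% = total kill) after spraying larva-infested barley plants. Test solutions were made from an acetone/DMF concentrate diluted with water holding 1000 ppm alkylarylpolyglycol ether emulsifier.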

[7] = system: Nilaparvata lugens; test: Nilaparvata lugens spray test; conditions: 96 h, rice plants, after 4 days; for mortality at 100 g/ha: application rate 100 g/ha
Protocol: Nilaparvata lugens—Spray Test Solvent: 78.0 parts by weight of acetone • • 1.5 parts by weight of dimethylformamide Emulsifier: alkylarylpolyglycol ether
To produce a suitable preparation of active compound, 1 part by weight of active compound is mixed with the stated amount of solvents and is diluted with water, containing an emulsifier concentration of 1000 ppm, to the desired concentration. Further test concentrations are prepared by dilution with emulsifier containing water.
Rice plants (Oryza sativa) are sprayed with a preparation of the active ingredient of the desired concentration and the plants are infested with the brown planthopper (Nilaparvata lugens).
After 4 days mortality in % is determined. 100% means all planthoppers have been killed and 0% means none of the planthoppers have been killed.

[8] = system: Diabrotica balteata; test: Diabrotica balteata spray test; conditions: 168 h, wheat seeds, larvae, after 7 days, read-out: activity (efficacy: 100% means all seedlings have grown up like in the untreated, uninfected control); for pest or weed control at 32 µg/disc, 100 g/ha: application rate 100 g/ha (=32 μg/well); for pest or weed control at 160 µg/disc, 500 g/ha: application rate 500 g/ha (=160 μg/well)
How it was run: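 Efficacy (%) was scored 7 days after spraying, with 100% meaning growth like the untreated, uninfected control and 0% meaning no seedling grew. Spray solutions of compound in acetone/DMF with emulsifier-containing water went onto 1-day-germinated wheat seeds, and each unit was then infested with 10-20 banded cucumber beetle larvae.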

[9] = system: Meloidogyne incognita; test: Meloidogyne incognita test; conditions: application rate 20 ppm, salad seedlings, after 14 days
Protocol: Meloidogyne incognita—Test Solvent: 125.0 parts by weight of acetone
To produce a suitable preparation of active compound, 1 part by weight of active compound is mixed with the stated amount of solvent, and the concentrate is diluted with water to the desired concentration.
Vessels are filled with sand, a solution of the active ingredient, a suspension containing eggs and larvae of the southern root-knot nematode (Meloidogyne incognita) and salad seeds. The salad seeds germinate and the seedlings grow. Galls develop in the roots.
After 14 days the nematicidal activity is determined based on the percentage of gall formation. 100% means no galls were found and 0% means the number of galls found on the roots of the treated plants was equal to that in untreated control plants.

[10] = system: Spodoptera frugiperda; test: Spodoptera frugiperda spray test; conditions: in Zea mays, 168 h, read-out: activity (mortality)
How it was run: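 Percent kill of fall armyworm caterpillars was assessed 7 days after infesting dried, treated maize leaf sections. Treatment was a spray of compound in acetone/dimethylformamide, diluted with water containing emulsifier at 1000 ppm.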

[11] = system: Ctenocephalides felis; test: Ctenocephalides felis in-vitro contact test, adult cat flea (CTECFE Cont); conditions: application rate 5 μg/cm^2 (=500 g/ha), adult cat fleas, after 48 hours, read-out: activity (efficacy: 100% means all fleas are dead or moribund)
How it was run: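 Efficacy, as percent of fleas dead or moribund, was scored 48 h after adults (5-10 per tube) were placed in glass tubes whose walls carried dried compound at 5 μg/cm^2 (900 ppm solution). Moribund meant failing to climb away from a 45-50° C. hot plate within 5 min.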

[12] = system: Myzus persicae; test: Myzus persicae spray test; conditions: in Brassica rapa, foliar, 120 h, read-out: activity (mortality), application rate 100 g/ha, spray, Chinese cabbage leaf disks, after 5 days
How it was run: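 Aphid mortality in % was assessed 5 days after spraying; leaf disks of Brassica pekinensis carrying mixed-instar green peach aphids were treated. Spray preparation: active compound in acetone plus dimethylformamide, diluted with emulsifier-containing water (1000 ppm).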

[13] = system: Aedes aegypti strain MONHEIM; test: Aedes aegypti test (AEDSAE surface treatment & contact assay); conditions: exposure 30 minutes, 24 hours after contact, read-out: efficacy (mortality)
How it was run: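 Compound dissolved in acetone (2 mg/ml) with 2000 ppm rapeseed oil methyl ester, pipetted onto glazed tile and dried. Adult mosquitoes exposed on the surface for 30 min; percent mortality scored 24 h after contact.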

[14] = system: Musca domestica strain WHO—N; test: Musca domestica test (MUSCDO surface treatment & contact assay); conditions: surface concentration 20 mg/m^2, glazed tile, exposure 30 minutes, 24 hours after contact, read-out: efficacy (mortality)
How it was run: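 Compound dissolved in acetone (2 mg/ml) with 2000 ppm rapeseed oil methyl ester and pipetted onto glazed tile; after acetone evaporation, adult flies exposed to dried surface for 30 minutes. Mortality (%) scored 24 hours after contact.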

## Cc1nc([C@H](C)NC(=O)c2cc(C(F)(F)F)cc(C(F)(F)F)c2)n(-c2ccc(C(=O)N(C)CCN(C)C)cn2)n1 [II-95]
[1]
  pest or weed control at 0.004 mg: 80%
[2]
  pest or weed control at 5 µg/cm2: 90%
[3]
  mortality at 100 ppm: 100%
[4]
  pest or weed control at 1 µg/cm2, 100 g/ha: 100%
[5]
  mortality at 4 ppm: 90%
[6]; application rate 100 g/ha
  mortality at 100 g/ha: 100%
[7]
  mortality at 100 g/ha: 90%

## CCOc1nc([C@H](C)NC(=O)c2cc(Cl)cc(C(F)(F)F)c2)n(-c2ccc(C#N)cn2)n1 [I-12]
[1]
  pest or weed control at 0.02 mg: 100%
[2]
  pest or weed control at 5 µg/cm2: 100%
[3]
  mortality at 100 ppm: 90%
[8]
  pest or weed control at 32 µg/disc, 100 g/ha: 100%
  pest or weed control at 160 µg/disc, 500 g/ha: 100%
[9]
  nematicidal activity (100% means no galls were found): 90%
[10]
  mortality at 100 g/ha: 100%
  mortality at 500 g/ha: 100%

## C[C@H](NC(=O)c1cc(C(F)(F)F)cc(C(F)(F)F)c1)c1ncnn1-c1ccc(C(=O)N(C)CC(F)(F)F)cn1 [II-74]
[1]
  pest or weed control at 0.004 mg: 100%
  pest or weed control at 0.02 mg: 100%
[2]
  pest or weed control at 5 µg/cm2: 100%
[11]
  pest or weed control at 5 µg/cm2: 100%
[4]
  pest or weed control at 1 µg/cm2, 100 g/ha: 100%
  pest or weed control at 5 µg/cm2, 500 g/ha: 100%
[8]
  pest or weed control at 32 µg/disc, 100 g/ha: 100%
  pest or weed control at 160 µg/disc, 500 g/ha: 100%
[5]
  mortality at 4 ppm: 100%
[6]; application rate 500 g/ha
  mortality at 500 g/ha: 100%
[7]; application rate 500 g/ha
  mortality at 500 g/ha: 90%
[10]
  mortality at 100 g/ha: 100%
  mortality at 500 g/ha: 100%

## C[C@H](NC(=O)c1cc(Cl)cc(C(F)(F)F)c1)c1ncnn1-c1cc([N+](=O)[O-])ccn1 [II-24]
[1]
  pest or weed control at 0.004 mg: 80%
  pest or weed control at 0.02 mg: 100%
[2]
  pest or weed control at 5 µg/cm2: 100%
[4]
  pest or weed control at 1 µg/cm2, 100 g/ha: 80%
[8]
  pest or weed control at 160 µg/disc, 500 g/ha: 80%
[9]
  nematicidal activity (100% means no galls were found): 100%
[10]
  mortality at 500 g/ha: 100%

## Cc1nc([C@H](C)NC(=O)c2cc(Cl)cc(C(F)(F)F)c2)n(-c2cnc(C#N)cn2)n1 [II-104]
[1]
  pest or weed control at 0.004 mg: 100%
[2]
  pest or weed control at 5 µg/cm2: 100%
[11]
  pest or weed control at 5 µg/cm2: 100%
[3]
  mortality at 100 ppm: 100%
[4]
  pest or weed control at 1 µg/cm2, 100 g/ha: 100%
  pest or weed control at 5 µg/cm2, 500 g/ha: 100%
[12]
  mortality at 100 g/ha: 100%
[7]
  mortality at 100 g/ha: 90%
[10]
  mortality at 100 g/ha: 100%

## CCOc1nc([C@H](C)NC(=O)c2cc(Cl)cc(Cl)c2)n(-c2ccc(C#N)cn2)n1 [I-14]
[1]
  pest or weed control at 0.004 mg: 100%
  pest or weed control at 0.02 mg: 100%
[2]
  pest or weed control at 5 µg/cm2: 100%
[8]
  pest or weed control at 32 µg/disc, 100 g/ha: 100%
  pest or weed control at 160 µg/disc, 500 g/ha: 100%
[9]
  nematicidal activity (100% means no galls were found): 100%
[10]
  mortality at 100 g/ha: 83%
  mortality at 500 g/ha: 100%

## C[C@H](NC(=O)c1cc(Cl)cc(OC(F)(F)F)c1)c1ncnn1-c1cc(NC(=O)C2CC2)ccn1 [II-25]
[1]
  pest or weed control at 0.004 mg: 100%
  pest or weed control at 0.02 mg: 100%
[2]
  pest or weed control at 5 µg/cm2: 100%
[4]
  pest or weed control at 5 µg/cm2, 500 g/ha: 80%
[8]
  pest or weed control at 160 µg/disc, 500 g/ha: 80%
[9]
  nematicidal activity (100% means no galls were found): 90%
[5]
  mortality at 4 ppm: 100%
[10]
  mortality at 100 g/ha: 100%
  mortality at 500 g/ha: 100%
[13]; surface concentration 4 mg/m^2, glazed tile
  mortality at 4 mg/m2: 80 to 100%
[13]; surface concentration 20 mg/m^2, glazed tile
  mortality at 20 mg/m2: 80 to 100%
[14]
  mortality at 20 mg/m2: 80 to 100%

## CCOc1nc([C@H](C)NC(=O)c2cc(C(F)(F)F)cc(C(F)(F)F)c2)n(-c2ccc(C#N)cn2)n1 [I-13]
[1]
  pest or weed control at 0.004 mg: 100%
  pest or weed control at 0.02 mg: 100%
[2]
  pest or weed control at 5 µg/cm2: 100%
[3]
  mortality at 100 ppm: 100%
[8]
  pest or weed control at 32 µg/disc, 100 g/ha: 100%
  pest or weed control at 160 µg/disc, 500 g/ha: 100%
[9]
  nematicidal activity (100% means no galls were found): 90%
[10]
  mortality at 100 g/ha: 100%
  mortality at 500 g/ha: 100%

## CC(C)c1nc([C@H](C)NC(=O)c2cccc(Br)n2)n(-c2ccc(C#N)cn2)n1 [I-23]
[1]
  pest or weed control at 0.004 mg: 80%
  pest or weed control at 0.02 mg: 100%
[4]
  pest or weed control at 5 µg/cm2, 500 g/ha: 80%
[9]
  nematicidal activity (100% means no galls were found): 90%
